Columns and labels:
[1] = test system: EGFR Del19/T790M/C797S (BaF3-DTC cells); experiment: EGFR degradation HTRF assay, BaF3-DTC cells; format: cell-based; conditions: 16h treatment; for DTC Dmax (%): maximum percentage of degradation; for DC50: read-out: DTC DC50
Protocol: BaF3 WT(wild type), BaF3-LTC(L858R/T790M/C797S) and BaF3-DTC(Del19/T790M/C797S) cells are treated with compounds diluted in 0.2% DMSO cell culture medium and incubate for 16h, 37° C., 5% CO2, H1975-#36, H1975-#28, H1975-#23 and HCC827 cells are treated with compounds diluted in 0.2% DMSO cell culture medium on day 2, incubate for 16h, 37° C., 5% CO2.the final concentriation of compounds in all assay is start with 10 uM, 5-fold dilution, total 8 doses were included.
After 16h treatment, add HTRF lysis buffer to each well; seal the plate and incubate 1 hour at room temperature on a plate shaker; Once the cells are lysed, 16 μL of cell lysate are transferred to a PE 384-well HTRF detection plate; 4 μL of pre-mixed HTRF antibodies are added to each well; Cover the plate with a plate sealer, spin 1000 rpm for 1 min, Incubate overnight at room temperature; Read on BMG PheraStar with HTRF protocol (337 nm-665 nm-620 nm).
The inhibition (degradation) percentage of the compound was calculated by the following equation: Inhibition percentage of Compound=100-100×(Signal-low control)/(High control-low control), wherein signal=each test compound group
High control=Cell group with added DMSO and without compound, indicating microplate readings without EGFR degradation;
Dmax is the maximum percentage of inhibition (degradation).
The IC50 (DC50) value of a compound can be obtained by fitting the following equation
Y=Bottom+(TOP−Bottom)/(1+((IC50/X)^hillslope))
Wherein, X and Y are known values, and IC50, Hillslope, Top and Bottom are the parameters obtained by fitting with software. Y is the inhibition percentage (calculated from the equation), X is the concentration of the compound; IC50 is the concentration of the compound when the 50% inhibition is reached. The smaller the IC50 value is, the stronger the inhibitory ability of the compound is. Vice versa, the higher the IC50 value is, the weaker the inhibitory ability of the compound is; Hillslope represents the slope of the fitted curve, generally around 1*; Bottom represents the minimum value of the curve obtained by data fitting, which is generally 0%±20%; Top represents the maximum value of the curve obtained by data fitting, which is generally 100%±20%. The experimental data were fitted by calculating and analyzing with Dotmatics data analysis software.

[2] = target: T1, EGFR L858R/T790M/C797S (BaF3-LTC cells) (Homo sapiens, UniProt P00533, C797S/L858R/T790M); experiment: EGFR degradation HTRF assay, BaF3-LTC cells; format: cell-based; conditions: BaF3-LTC, 16h treatment; for Dmax: maximum percentage of degradation, read-out: LTC Dmax (%); for DC50: read-out: LTC DC50
T1 construct: expressed in transfected cells; host or cells: BaF3
T1 sequence (P00533 25-1210 T790M/C797S/L858R): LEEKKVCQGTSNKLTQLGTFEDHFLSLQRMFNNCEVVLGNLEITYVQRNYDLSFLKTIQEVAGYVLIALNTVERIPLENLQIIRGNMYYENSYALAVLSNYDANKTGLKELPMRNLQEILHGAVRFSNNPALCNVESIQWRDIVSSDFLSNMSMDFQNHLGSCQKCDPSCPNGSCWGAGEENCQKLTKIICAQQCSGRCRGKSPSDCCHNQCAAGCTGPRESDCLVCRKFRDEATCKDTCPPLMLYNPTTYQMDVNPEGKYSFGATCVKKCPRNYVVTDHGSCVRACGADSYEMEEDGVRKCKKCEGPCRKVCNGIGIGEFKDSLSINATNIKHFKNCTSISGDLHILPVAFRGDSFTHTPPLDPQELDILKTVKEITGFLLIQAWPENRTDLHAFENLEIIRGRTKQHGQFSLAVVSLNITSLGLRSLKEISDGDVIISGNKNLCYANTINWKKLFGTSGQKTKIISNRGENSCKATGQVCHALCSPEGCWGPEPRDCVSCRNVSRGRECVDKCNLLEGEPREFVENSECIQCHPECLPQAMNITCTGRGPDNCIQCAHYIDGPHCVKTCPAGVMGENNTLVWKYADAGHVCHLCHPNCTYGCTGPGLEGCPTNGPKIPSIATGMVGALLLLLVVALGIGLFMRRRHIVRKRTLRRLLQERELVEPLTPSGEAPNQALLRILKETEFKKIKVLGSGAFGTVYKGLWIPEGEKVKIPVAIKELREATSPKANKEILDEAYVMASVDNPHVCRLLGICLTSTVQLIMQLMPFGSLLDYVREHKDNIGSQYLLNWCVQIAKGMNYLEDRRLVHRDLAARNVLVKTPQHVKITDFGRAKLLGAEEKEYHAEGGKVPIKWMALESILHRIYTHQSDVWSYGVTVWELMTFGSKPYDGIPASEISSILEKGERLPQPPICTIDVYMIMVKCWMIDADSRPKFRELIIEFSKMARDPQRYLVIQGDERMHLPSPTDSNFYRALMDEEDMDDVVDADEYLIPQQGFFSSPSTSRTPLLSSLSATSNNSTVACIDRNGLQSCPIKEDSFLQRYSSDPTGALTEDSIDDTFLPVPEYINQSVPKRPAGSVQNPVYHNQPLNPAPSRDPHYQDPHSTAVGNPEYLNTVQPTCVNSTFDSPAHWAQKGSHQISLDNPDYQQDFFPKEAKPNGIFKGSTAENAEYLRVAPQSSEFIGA
In short: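 EGFR remaining after a 16 h, 37 °C exposure (8 doses, 5-fold steps from 10 uM final, 0.2% DMSO) was quantified by HTRF antibodies in cell lysate. Percent inhibition relative to DMSO control was fitted by four-parameter logistic to give DC50; Dmax denotes maximal degradation.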

Compound | DC50 [1] [nM] | Dmax [2] [%] | DC50 [2] [nM] | DTC Dmax (%) [1] [%]
CCc1cc(Nc2ncc(Br)c(Nc3ccc4nccnc4c3P(C)(C)=O)n2)c(OC)cc1N1CCC(N2CCN(C(=O)[C@H]3CCN(c4ccc5c(c4)C(=O)N(C4CCC(=O)NC4=O)C5=O)C3)CC2)CC1 (stereo partly drawn) [Example 66, 5-((S)-3-(4-(1-(4-((5-bromo-4-((5-(dimethylphosphoryl)quinoxalin-6-yl)amino)pyrimidin-2-yl)amino)-2-ethyl-5-methoxyphenyl)piperidin-4-yl)piperazine-1-carbonyl)pyrrolidin-1-yl)-2-(2,6-dioxopiperidin-3-yl)isoindoline-1,3-dione] | 4.19 | 86.3 | 11 | 92.43
CCc1cc(Nc2ncc(Br)c(Nc3ccc4nccnc4c3P(C)(C)=O)n2)c(OC)cc1N1CCC(N2C[C@@H](C)N(CC3CN(c4ccc5c(c4)C(=O)N(C4CCC(=O)NC4=O)C5=O)C3)[C@@H](C)C2)CC1 (stereo partly drawn) [Example 159, 5-(3-(((2R,6S)-4-(1-(4-((5-bromo-4-((5-(dimethylphosphoryl)quinoxalin-6-yl)amino)pyrimidin-2-yl)amino)-2-ethyl-5-methoxyphenyl)piperidin-4-yl)-2,6-dimethylpiperazin-1-yl)methyl)azetidin-1-yl)-2-(2,6-dioxopiperidin-3-yl)isoindoline-1,3-dione] | 9.34 | 88.3 | 16.1 | 87.25
CCc1cc(Nc2ncc(Br)c(Nc3ccc4nccnc4c3P(C)(C)=O)n2)c(OC)cc1N1CCN(C2CCN(C3CCC(c4ccc(C5CCC(=O)NC5=O)cc4)C3)CC2)CC1 (stereo not shown) [Example 178, 3-(4-(3-(4-(4-(4-((5-bromo-4-((5-(dimethylphosphoryl)quinoxalin-6-yl)amino)pyrimidin-2-yl)amino)-2-ethyl-5-methoxyphenyl)piperazin-1-yl)piperidin-1-yl)cyclopentyl)phenyl)piperidine-2,6-dione] | 44.4 | 83.5 | 71.8 | 81.18
CCc1cc(Nc2ncc(Br)c(Nc3ccc4nccnc4c3P(C)(C)=O)n2)c(OC)cc1N1CCC(N2CCN(C(=O)C3CN(c4ccc(C5CCC(=O)NC5=O)cc4)C3)CC2)CC1 (stereo not shown) [Example 199, 3-(4-(3-(4-(1-(4-((5-bromo-4-((5-(dimethylphosphoryl)quinoxalin-6-yl)amino)pyrimidin-2-yl)amino)-2-ethyl-5-methoxyphenyl)piperidin-4-yl)piperazine-1-carbonyl)azetidin-1-yl)phenyl)piperidine-2,6-dione] | 9.03 | 86.6 | 22.1 | 84.49
CCc1cc(Nc2ncc(Br)c(Nc3ccc4cc(C)ncc4c3P(C)(C)=O)n2)c(OC)cc1N1CCC(N2CCN(CCc3cc(F)c(C4CCC(=O)NC4=O)c(F)c3)CC2)CC1 (stereo not shown) [Example 200, 3-(4-(2-(4-(1-(4-((5-bromo-4-((8-(dimethylphosphoryl)-3-methylisoquinolin-7-yl)amino)pyrimidin-2-yl)amino)-2-ethyl-5-methoxyphenyl)piperidin-4-yl)piperazin-1-yl)ethyl)-2,6-difluorophenyl)piperidine-2,6-dione] | 2.8 | 88.6 | 11.1 | 93.3
CCc1cc(Nc2ncc(Br)c(Nc3ccc4ncccc4c3P(C)(C)=O)n2)c(OC)cc1N1CCC(N2CCN(CCc3cc(F)c(C4CCC(=O)NC4=O)c(F)c3)CC2)CC1 (stereo not shown) [Example 201, 3-(4-(2-(4-(1-(4-((5-bromo-4-((5-(dimethylphosphoryl)quinolin-6-yl)amino)pyrimidin-2-yl)amino)-2-ethyl-5-methoxyphenyl)piperidin-4-yl)piperazin-1-yl)ethyl)-2,6-difluorophenyl)piperidine-2,6-dione] | 1.72 | 92 | 6.8 | 95.68
CCc1cc(Nc2ncc(Br)c(Nc3ccc4scnc4c3P(C)(C)=O)n2)c(OC)cc1N1CCC(N2CCN(CCc3cc(F)c(C4CCC(=O)NC4=O)c(F)c3)CC2)CC1 (stereo not shown) [Example 206, 3-(4-(2-(4-(1-(4-((5-bromo-4-((4-(dimethylphosphoryl)benzo[d]thiazol-5-yl)amino)pyrimidin-2-yl)amino)-2-ethyl-5-methoxyphenyl)piperidin-4-yl)piperazin-1-yl)ethyl)-2,6-difluorophenyl)piperidine-2,6-dione] | 9.26 | 92.1 | 20.9 | 94.22
CCc1cc(Nc2ncc(Br)c(Nc3ccc4nc(C)ccc4c3P(C)(C)=O)n2)c(OC)cc1N1CCC(N2CCN(CC3CN(c4ccc(C5CCC(=O)NC5=O)c(C#N)c4)C3)CC2)CC1 (stereo not shown) [Example 207, 5-(3-((4-(1-(4-((5-bromo-4-((5-(dimethylphosphoryl)-2-methylquinolin-6-yl)amino)pyrimidin-2-yl)amino)-2-ethyl-5-methoxyphenyl)piperidin-4-yl)piperazin-1-yl)methyl)azetidin-1-yl)-2-(2,6-dioxopiperidin-3-yl)benzonitrile] | 6.6 | 91.3 | 13.2 | 90.41

The next lines start with results.

DC50 [1] [nM] | Dmax [2] [%] | DC50 [2] [nM] | Compound | DTC Dmax (%) [1] [%]
18.1 | 84.2 | 44 | CCc1cc(Nc2ncc(Br)c(Nc3ccc4nccnc4c3P(C)(C)=O)n2)c(OC)cc1N1CCC(N2CCN(CCc3cc(F)c(C4CCC(=O)NC4=O)cc3Cl)CC2)CC1 (stereo not shown) [Example 165, 3-(4-(2-(4-(1-(4-((5-bromo-4-((5-(dimethylphosphoryl)quinoxalin-6-yl)amino)pyrimidin-2-yl)amino)-2-ethyl-5-methoxyphenyl)piperidin-4-yl)piperazin-1-yl)ethyl)-5-chloro-2-fluorophenyl)piperidine-2,6-dione] | 82.21
13.5 | 80.1 | 49.3 | CCc1cc(Nc2ncc(Br)c(Nc3ccc4nccnc4c3P(C)(C)=O)n2)c(OC)cc1N1CCC(N2CCN(CCc3cc(Cl)c(C4CCC(=O)NC4=O)cc3F)CC2)CC1 (stereo not shown) [Example 166, 3-(4-(2-(4-(1-(4-((5-bromo-4-((5-(dimethylphosphoryl)quinoxalin-6-yl)amino)pyrimidin-2-yl)amino)-2-ethyl-5-methoxyphenyl)piperidin-4-yl)piperazin-1-yl)ethyl)-2-chloro-5-fluorophenyl)piperidine-2,6-dione] | 85.99
7.6 | 87.8 | 18.5 | CCc1cc(Nc2ncc(Br)c(Nc3ccc4ncccc4c3P(C)(C)=O)n2)c(OC)cc1N1CCC(N2CCN(CCC3CCN(c4cc(F)c(C5CCC(=O)NC5=O)c(F)c4)CC3)CC2)CC1 (stereo not shown) [Example 202, 3-(4-(4-(2-(4-(1-(4-((5-bromo-4-((5-(dimethylphosphoryl)quinolin-6-yl)amino)pyrimidin-2-yl)amino)-2-ethyl-5-methoxyphenyl)piperidin-4-yl)piperazin-1-yl)ethyl)piperidin-1-yl)-2,6-difluorophenyl)piperidine-2,6-dione] | 93.39
15.6 | 85.7 | 31 | COc1cc(N2CCN(C3CN(CCC4CCN(c5cc(F)c(C6CCC(=O)NC6=O)c(F)c5)CC4)C3)CC2)c(C)cc1Nc1ncc(Br)c(Nc2ccc3nccnc3c2P(C)(C)=O)n1 (stereo not shown) [Example 204, 3-(4-(4-(2-(3-(4-(4-((5-bromo-4-((5-(dimethylphosphoryl)quinoxalin-6-yl)amino)pyrimidin-2-yl)amino)-5-methoxy-2-methylphenyl)piperazin-1-yl)azetidin-1-yl)ethyl)piperidin-1-yl)-2,6-difluorophenyl)piperidine-2,6-dione] | 91.45
6.63 | 87.7 | 32.5 | CCc1cc(Nc2ncc(Br)c(Nc3ccc4nccnc4c3P(C)(C)=O)n2)c(OC)cc1N1CCC(N2CCN(CCCc3cc(F)c(C4CCC(=O)NC4=O)c(F)c3)CC2)CC1 (stereo not shown) [Example 205, 3-(4-(3-(4-(1-(4-((5-bromo-4-((5-(dimethylphosphoryl)quinoxalin-6-yl)amino)pyrimidin-2-yl)amino)-2-ethyl-5-methoxyphenyl)piperidin-4-yl)piperazin-1-yl)propyl)-2,6-difluorophenyl)piperidine-2,6-dione] | 90.39
